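Growth conditions: 96-well plates. Treatment: test compound, 48 hours, 5 concentrations. Analysis: linear interpolation between bracketing concentrations; unreached endpoints set to highest concentration. GI50 is the concentration that inhibits growth by half.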 Active and inactive are the calls of the source. Cut-off read from the data, not from the text of the source: active = GI50 up to about 1.1 µM and inactive = higher.
Legend:
Experiment in all cases: NCI-60 cell line screen, 48 h
[1] = test system: 786-0
[2] = test system: A549
[3] = test system: ACHN
[4] = test system: CAKI-1
[5] = test system: CCRF-CEM
[6] = test system: COLO 205
[7] = test system: DU-145
[8] = test system: EKVX
[9] = test system: HCC 2998
[10] = test system: HCT-116
[11] = test system: HCT-15
[12] = test system: HL-60
[13] = test system: HOP-62
[14] = test system: HOP-92
[15] = test system: HT-29
[16] = test system: Hs-578T
[17] = test system: IGROV-1
[18] = test system: K562
[19] = test system: KM12
[20] = test system: LOX IMVI
[21] = test system: M14
[22] = test system: MCF7
[23] = test system: MDA-MB-231
[24] = test system: MDA-MB-435
[25] = test system: MDA-N
[26] = test system: MOLT-4
[27] = test system: Malme-3M
[28] = test system: NCI-H226
[29] = test system: NCI-H23
[30] = test system: NCI-H460
[31] = test system: NCI/ADR-RES
[32] = test system: OVCAR-3
[33] = test system: OVCAR-4
[34] = test system: OVCAR-5
[35] = test system: OVCAR-8
[36] = test system: PC-3
[37] = test system: RPMI-8226
[38] = test system: RXF 393
[39] = test system: SF-268
[40] = test system: SF-295
[41] = test system: SF-539
[42] = test system: SK-MEL-28
[43] = test system: SK-MEL-2
[44] = test system: SK-MEL-5
[45] = test system: SK-OV-3
[46] = test system: SN12C
[47] = test system: SNB-19
[48] = test system: SNB-75
[49] = test system: SR
[50] = test system: SW-620
[51] = test system: T47D
[52] = test system: TK-10
[53] = test system: U-251
[54] = test system: UACC-257
[55] = test system: UACC-62
[56] = test system: UO-31

Question: For `C1=CC2=CC=CC3c4nc5ccc6ccccc6c5nc4C(=C1)C23` (configuration not stated), which GI50 [1] is on record?
Answer: The GI50 was > 100 µM (inactive).

Question: What about the GI50 [2] of the same compound?
Answer: Its GI50 is > 100 µM (inactive).

Question: And the GI50 [3]?
Answer: Its GI50 is > 100 µM (inactive).

Question: What about the GI50 [4] of the same compound?
Answer: Its GI50 is > 100 µM (inactive).

Question: What about the GI50 [5] of the same compound?
Answer: The GI50 was > 100 µM (inactive).

Question: What about the GI50 [6] of the same compound?
Answer: Its GI50 is > 100 µM (inactive).

Question: What about the GI50 [7] of the same compound?
Answer: The GI50 was > 100 µM (inactive).

Question: What about the GI50 [8] of the same compound?
Answer: Its GI50 is > 100 µM (inactive).

Question: And the GI50 [9]?
Answer: Its GI50 is > 100 µM (inactive).

Question: What about the GI50 [10] of the same compound?
Answer: Its GI50 is > 100 µM (inactive).

Question: And the GI50 [11]?
Answer: The GI50 was > 100 µM.

Question: And the GI50 [12]?
Answer: The GI50 was > 100 µM (inactive).

Question: What about the GI50 [13] of the same compound?
Answer: The GI50 was > 100 µM (inactive).

Question: And the GI50 [14]?
Answer: The GI50 was > 100 µM (inactive).

Question: And the GI50 [15]?
Answer: The GI50 was > 100 µM (inactive).

Question: What about the GI50 [16] of the same compound?
Answer: The GI50 was > 100 µM (inactive).

Question: What about the GI50 [17] of the same compound?
Answer: Its GI50 is > 100 µM (inactive).

Question: What about the GI50 [18] of the same compound?
Answer: Its GI50 is > 100 µM (inactive).

Question: And the GI50 [19]?
Answer: The GI50 was > 100 µM (inactive).

Question: And the GI50 [20]?
Answer: Its GI50 is > 100 µM (inactive).

Question: And the GI50 [21]?
Answer: Its GI50 is > 100 µM (inactive).

Question: What about the GI50 [22] of the same compound?
Answer: Its GI50 is > 100 µM (inactive).

Question: What about the GI50 [23] of the same compound?
Answer: The GI50 was > 100 µM (inactive).

Question: What about the GI50 [24] of the same compound?
Answer: The GI50 was > 100 µM (inactive).

Question: What about the GI50 [25] of the same compound?
Answer: The GI50 was > 100 µM (inactive).

Question: What about the GI50 [26] of the same compound?
Answer: The GI50 was > 100 µM (inactive).

Question: What about the GI50 [27] of the same compound?
Answer: The GI50 was > 100 µM (inactive).

Question: And the GI50 [28]?
Answer: Its GI50 is > 100 µM (inactive).

Question: And the GI50 [29]?
Answer: Its GI50 is > 100 µM (inactive).

Question: And the GI50 [30]?
Answer: Its GI50 is > 100 µM (inactive).

Question: What about the GI50 [31] of the same compound?
Answer: The GI50 was > 100 µM (inactive).

Question: What about the GI50 [32] of the same compound?
Answer: Its GI50 is > 100 µM (inactive).

Question: And the GI50 [33]?
Answer: Its GI50 is > 100 µM (inactive).

Question: And the GI50 [34]?
Answer: The GI50 was > 100 µM (inactive).

Question: What about the GI50 [35] of the same compound?
Answer: The GI50 was > 100 µM (inactive).

Question: And the GI50 [36]?
Answer: The GI50 was > 100 µM (inactive).

Question: And the GI50 [37]?
Answer: Its GI50 is > 100 µM (inactive).

Question: What about the GI50 [38] of the same compound?
Answer: Its GI50 is > 100 µM (inactive).

Question: And the GI50 [39]?
Answer: Its GI50 is > 100 µM (inactive).

Question: What about the GI50 [40] of the same compound?
Answer: Its GI50 is > 100 µM (inactive).

Question: What about the GI50 [41] of the same compound?
Answer: The GI50 was > 100 µM (inactive).

Question: And the GI50 [42]?
Answer: The GI50 was > 100 µM (inactive).

Question: What about the GI50 [43] of the same compound?
Answer: Its GI50 is > 100 µM (inactive).

Question: And the GI50 [44]?
Answer: The GI50 was > 100 µM (inactive).

Question: And the GI50 [45]?
Answer: Its GI50 is > 100 µM (inactive).

Question: What about the GI50 [46] of the same compound?
Answer: Its GI50 is > 100 µM (inactive).

Question: What about the GI50 [47] of the same compound?
Answer: The GI50 was > 100 µM (inactive).

Question: And the GI50 [48]?
Answer: The GI50 was > 100 µM (inactive).

Question: What about the GI50 [49] of the same compound?
Answer: The GI50 was > 100 µM (inactive).

Question: And the GI50 [50]?
Answer: Its GI50 is > 100 µM (inactive).

Question: And the GI50 [51]?
Answer: Its GI50 is > 100 µM (inactive).

Question: And the GI50 [52]?
Answer: The GI50 was > 100 µM (inactive).

Question: What about the GI50 [53] of the same compound?
Answer: Its GI50 is > 100 µM (inactive).

Question: What about the GI50 [54] of the same compound?
Answer: Its GI50 is > 100 µM (inactive).

Question: And the GI50 [55]?
Answer: Its GI50 is > 100 µM (inactive).

Question: What about the GI50 [56] of the same compound?
Answer: Its GI50 is > 100 µM (inactive).

Question: What does the source list for `CC(=O)c1ccc(/N=N/c2ccc3nonc3c2N)cc1`?
Answer: GI50 [1]: > 100 µM (inactive); GI50 [2]: > 100 µM (inactive); GI50 [3]: > 100 µM (inactive); GI50 [4]: > 100 µM (inactive); GI50 [5]: > 100 µM (inactive); GI50 [6]: > 100 µM (inactive); GI50 [7]: > 100 µM (inactive); GI50 [8]: 9.98 µM (inactive); GI50 [9]: > 100 µM (inactive); GI50 [10]: > 100 µM (inactive); GI50 [11]: > 100 µM; GI50 [12]: > 100 µM (inactive); GI50 [13]: > 100 µM (inactive); GI50 [14]: > 100 µM (inactive); GI50 [15]: > 100 µM (inactive); GI50 [16]: > 100 µM (inactive); GI50 [17]: > 100 µM (inactive); GI50 [18]: > 100 µM (inactive); GI50 [19]: > 100 µM (inactive); GI50 [20]: > 100 µM (inactive); GI50 [21]: 52.8 µM (inactive); GI50 [22]: > 100 µM (inactive); GI50 [23]: > 100 µM (inactive); GI50 [24]: > 100 µM (inactive); GI50 [25]: > 100 µM (inactive); GI50 [26]: > 100 µM (inactive); GI50 [27]: > 100 µM (inactive); GI50 [28]: > 100 µM (inactive); GI50 [29]: 26.9 µM (inactive); GI50 [30]: > 100 µM (inactive); GI50 [31]: > 100 µM (inactive); GI50 [32]: 88.3 µM (inactive); GI50 [33]: > 100 µM (inactive); GI50 [34]: > 100 µM (inactive); GI50 [35]: > 100 µM (inactive); GI50 [36]: > 100 µM (inactive); GI50 [37]: > 100 µM (inactive); GI50 [38]: > 100 µM (inactive); GI50 [39]: > 100 µM (inactive); GI50 [40]: 83.4 µM (inactive); GI50 [41]: > 100 µM (inactive); GI50 [42]: > 100 µM (inactive); GI50 [43]: > 100 µM (inactive); GI50 [44]: > 100 µM (inactive); GI50 [45]: > 100 µM (inactive); GI50 [46]: > 100 µM (inactive); GI50 [47]: > 100 µM (inactive); GI50 [48]: 94.4 µM (inactive); GI50 [49]: > 100 µM (inactive); GI50 [50]: > 100 µM (inactive); GI50 [51]: > 100 µM (inactive); GI50 [52]: 53.1 µM (inactive); GI50 [53]: > 100 µM (inactive); GI50 [54]: > 100 µM (inactive); GI50 [55]: > 100 µM (inactive); GI50 [56]: > 100 µM (inactive)

Source: ChEMBL document CHEMBL1201862, “PubChem BioAssay data set” (2004)
